From patent publication US20030068615A1, “Polypeptides that bind HIV gp120 and related nucleic acids, antibodies, compositions, and methods of use” (priority 1999, published 2003)
Values joined by “and” are separate entries in the source; they are usually repeats but may differ in a detail not shown here. Equal values may be shown once. Read-outs that look alike come from different tables or passages of the source.

Biological target: HIV-1LAI envelope gp120 (Human immunodeficiency virus type 1 group M subtype B, UniProt P03377)
Assay type: binding
Conditions: for number of radioactive decays (counts) counted: human CD4 21-mer scan, empty control 2075; for Counts per 20′ Average-background: CCR5 18-mer scan, radiolabeled HIV-1LAI gp120; for Relative % of Control: mean of two syntheses and binding experiments ± average deviation, wild-type = 100%; for Binding Results For Window Length (counts bound-background), 9 / Binding Results For Window Length (counts bound-background), 12 / Binding Results For Window Length (counts bound-background), 15 / Binding Results For Window Length (counts bound-background), 18: STRL33 amino terminus; for Binding Results For Window Length (counts bound-background), 9: 9-mer starting at the first residue of the printed sequence; for Binding Results For Window Length (counts bound-background), 12: 12-mer starting at the first residue of the printed sequence; for Binding Results For Window Length (counts bound-background), 15: 15-mer starting at the first residue of the printed sequence; for Binding Results For Window Length (counts bound-background), 18: 18-mer starting at the first residue of the printed sequence
[1] = Panel C, 15-mers and 18-mers of CD4, empty control 556
[2] = Panel D, 9-mers and 12-mers of CD4, empty control […]
[3] = CXCR4 18-mer scan, background subtracted, empty control 0
[4] = CXCR4 18-mer scan, empty control 412
[5] = Panel B, 15-mers and 18-mers of CD4, empty control 575
[6] = STRL33 18-mer scan, background subtracted, first of two count columns
[7] = STRL33 18-mer scan, background subtracted, second of two count columns
[8] = Panel E, 9-mers and 12-mers of CD4, empty control 571
[9] = Panel A, 21-mers of CD4, empty control 515 and 617
[10] = Panel F, sequential alanine replacements of CD4 polypeptides, duplicate series, empty control 569
[11] = Panel G, alanine replacements and serial truncations (Z) of CD4 polypeptides, empty control 580

VEKLTGSGELWWQAE
COUNTS of radiolabeled gp120 retained [1]: 735 counts

EGEQVEFSFPLAFTV
COUNTS of radiolabeled gp120 retained [1]: 3270 counts

EEVQLLVFGLTA
COUNTS of radiolabeled gp120 retained [2]: 3261 counts

QKKVEFKIDIVVLAF
COUNTS of radiolabeled gp120 retained [1]: 1333 counts

IVYKKEGEQVEFSFPLAF
COUNTS of radiolabeled gp120 retained [1]: 5382 counts

CKAVHVIYTVNLYSSVLI
radioactive counts recorded in twenty minutes [3]: 243 counts | radioactive counts recorded in twenty minutes [4]: 655 counts

IEDSDTYICEVEDQK
COUNTS of radiolabeled gp120 retained [5]: 1143 counts

NKEAKVSKREKAVWVLNPEAG
number of radioactive decays (counts) counted: 1735 counts

VKQIAARLLPPLYSLVFI [CCR5 segment 25-42]
Counts per 20′ Average-background (background subtracted): 18 counts per 20′

MEGISIYTSDNYTAEMGS
Relative % of Control (CXCR4 (1-18) alanine variants): 72 ± 1%

EDQKEEVQL
COUNTS of radiolabeled gp120 retained [2]: 564 counts

RRQAERMSQLKRLLSEKKTCQ [human CD4, printed 42E-446]
number of radioactive decays (counts) counted: 1607 counts

IVYKKEGEQVEFSFP
COUNTS of radiolabeled gp120 retained [1]: 615 counts

ITLPFWAVDAVANWYFGN [CXCR4 segment 89-106]
radioactive counts recorded in twenty minutes [3]: 130 counts | radioactive counts recorded in twenty minutes [4]: 542 counts

QKRKALKTTVILILAFFA [CXCR4 segment 233-250]
radioactive counts recorded in twenty minutes [3]: 283 counts | radioactive counts recorded in twenty minutes [4]: 695 counts

TANSDTHLLQGQ
COUNTS of radiolabeled gp120 retained [2]: 549 counts

LIIKNLKIEDSDTYI
COUNTS of radiolabeled gp120 retained [5]: 542 counts

TVVLATQMTLGFFLPLLT [STRL33 segment 189-206]
radioactive counts recorded in twenty minutes [6]: 2327.5 counts | radioactive counts recorded in twenty minutes [7]: 2389.5 counts

KVEFKIDIVVLA
COUNTS of radiolabeled gp120 retained [8]: 560 counts

HCCINPIIYAFVGEKFRN [CCR5 segment 289-]
Counts per 20′ Average-background (background subtracted): 200 counts per 20′

ILAFFACWLPYYIGISID [CXCR4 segment 245-262]
radioactive counts recorded in twenty minutes [3]: 184 counts | radioactive counts recorded in twenty minutes [4]: 596 counts

KNLKIEDSD
COUNTS of radiolabeled gp120 retained [2]: 612 counts

YICEVEDQKEEVQLL
COUNTS of radiolabeled gp120 retained [5]: 1064 counts

GLTANSDTH
COUNTS of radiolabeled gp120 retained [2]: 481 counts

GEQVEFSFPLAFTVEKLTGSG [human CD4 216-236]
COUNTS of radiolabeled gp120 retained [9]: 652 counts | number of radioactive decays (counts) counted: 18549 counts

EVQLLVFGLTANSDTHLL
COUNTS of radiolabeled gp120 retained [5]: 667 counts

VCTLPFWAYAGIHEWVFG [STRL33 segment 81-98]
radioactive counts recorded in twenty minutes [6]: 1819.5 counts | radioactive counts recorded in twenty minutes [7]: 1754.5 counts

QLLVFGLTANSDTHLLQG
COUNTS of radiolabeled gp120 retained [5]: 574 counts

IVVLAFQKASSIVYKKEGEQV
COUNTS of radiolabeled gp120 retained [9]: 646 counts

VEFKIDIVVLAFQKASSIVYK
COUNTS of radiolabeled gp120 retained [9]: 725 counts

TGLYFIGFFSGIFFIILL
Counts per 20′ Average-background (background subtracted): 80 counts per 20′

HVIYTVNLYSSVLILAFI [CXCR4 segment 113-130]
radioactive counts recorded in twenty minutes [3]: 118 counts | radioactive counts recorded in twenty minutes [4]: 530 counts

EEVQLLVFGLTANSA
COUNTS of radiolabeled gp120 retained [10]: 22206 counts and 18227 counts

QKASSIVYKKEGEQVEFS
COUNTS of radiolabeled gp120 retained [1]: 602 counts

GEQVEFSFPLTFTVE
COUNTS of radiolabeled gp120 retained [11]: 17397 counts and 18318 counts

SKGHQKRKALKTTVILIL [CXCR4 segment 229-246]
radioactive counts recorded in twenty minutes [3]: 140 counts | radioactive counts recorded in twenty minutes [4]: 552 counts

MIVYFLFWAPYNIVLLLN [CCR5 segment 241-]
Counts per 20′ Average-background (background subtracted): 214 counts per 20′

IFFCVRCRHRRRQAERMSQIK
number of radioactive decays (counts) counted: 2085 counts

QKKVEFKIDIVV
COUNTS of radiolabeled gp120 retained [8]: 595 counts

LLNLAISDLFFLLTVPFW [CCR5 segment 69-86]
Counts per 20′ Average-background (background subtracted): 144 counts per 20′

KIEDSDTYICEV
COUNTS of radiolabeled gp120 retained [2]: 601 counts

FLTGIVGNGLVILVMGYQ [CXCR4 segment 49-66]
radioactive counts recorded in twenty minutes [3]: 246 counts | radioactive counts recorded in twenty minutes [4]: 658 counts

EDYGFSSFNDSSQEEHQA
Binding Results For Window Length (counts bound-background), 9 (background subtracted): 953 counts | Binding Results For Window Length (counts bound-background), 12 (background subtracted): 817 counts | Binding Results For Window Length (counts bound-background), 15 (background subtracted): 1152 counts | Binding Results For Window Length (counts bound-background), 18 (background subtracted): 548 counts

FIGFFSGIFFIILLTIDR
Counts per 20′ Average-background (background subtracted): 76 counts per 20′

KIEDSDTYICEVEDQKEE
COUNTS of radiolabeled gp120 retained [5]: 858 counts

AFVSLKFRKNFWKLVKDI [STRL33 segment 289-306]
radioactive counts recorded in twenty minutes [6]: 808.5 counts | radioactive counts recorded in twenty minutes [7]: 1040.5 counts

FQTLKIVILGLVLPLLVM [CCR5 segment 193-]
Counts per 20′ Average-background (background subtracted): 45 counts per 20′

TVEKLTGSG
COUNTS of radiolabeled gp120 retained [8]: 487 counts

LKARTVTFGVWDSVITWV [CCR5 segment 137-]
Counts per 20′ Average-background (background subtracted): 74 counts per 20′

FLVNLPLADLVFVCTLPF [STRL33 segment 69-86]
radioactive counts recorded in twenty minutes [6]: 70.5 counts | radioactive counts recorded in twenty minutes [7]: 51.5 counts

QRPRKLLAEKVVYVGVWI
radioactive counts recorded in twenty minutes [3]: 127 counts | radioactive counts recorded in twenty minutes [4]: 539 counts

EEVQLLVFGLTANSD
COUNTS of radiolabeled gp120 retained [5]: 6423 counts | COUNTS of radiolabeled gp120 retained [10]: 18721 counts and 18582 counts and 19738 counts and 21338 counts | COUNTS of radiolabeled gp120 retained [11]: 18040 counts and 23357 counts

VEDQKEEVQLLVFGL
COUNTS of radiolabeled gp120 retained [5]: 3816 counts

LVFGLTANSDTHLLQ
COUNTS of radiolabeled gp120 retained [5]: 609 counts

FPLAFTVEKLTG
COUNTS of radiolabeled gp120 retained [8]: 622 counts

GEQVEFSAPLAFTVE
COUNTS of radiolabeled gp120 retained [11]: 7767 counts and 7378 counts

MDYQASSPIYDINYYTSE [CCR5 (1-18) variant V5A]
Relative % of Control (CCR5 (1-18) alanine variants): 82 ± 3%

TANSDTHLLQGQSLTLTL
COUNTS of radiolabeled gp120 retained [5]: 891 counts

ICEVEDQKEEVQLLV
COUNTS of radiolabeled gp120 retained [5]: 1084 counts

AEQVEFSFPLAFTVE
COUNTS of radiolabeled gp120 retained [11]: 18042 counts and 18546 counts

IVVLAFQKA
COUNTS of radiolabeled gp120 retained [8]: 602 counts

DSDTYICEVEDQKEEVQL
COUNTS of radiolabeled gp120 retained [5]: 961 counts

MEGISIYTSDNYTEEAGS
Relative % of Control (CXCR4 (1-18) alanine variants): 88 ± 4%

NQKKVEFKIDIVVLAFQK
COUNTS of radiolabeled gp120 retained [1]: 889 counts

EEHQAFLQFSKVFLPCMY [STRL33 segment 21-38]
radioactive counts recorded in twenty minutes [6]: 2316.5 counts | radioactive counts recorded in twenty minutes [7]: 1819.5 counts

LTANSDTHL
COUNTS of radiolabeled gp120 retained [2]: 596 counts

KASSIVYKKEGE
COUNTS of radiolabeled gp120 retained [8]: 559 counts

EEVALLVFGLTANSD
COUNTS of radiolabeled gp120 retained [10]: 10890 counts and 13415 counts

NRLDQAMQVTETLGMTHC [CCR5 segment 273-]
Counts per 20′ Average-background (background subtracted): 10 counts per 20′

LVFGLTANSDTHLLQGQS
COUNTS of radiolabeled gp120 retained [5]: 564 counts

KKVEFKIDIVVLAFQ
COUNTS of radiolabeled gp120 retained [1]: 951 counts

KLVKDIGCLPYLGVSHQW [STRL33 segment 301-318]
radioactive counts recorded in twenty minutes [6]: −2.5 counts | radioactive counts recorded in twenty minutes [7]: 27.5 counts

SFPLAFTVE
COUNTS of radiolabeled gp120 retained [8]: 619 counts

ENTVHKWISITEALAFFH [CXCR4 segment 277-294]
radioactive counts recorded in twenty minutes [3]: 315 counts | radioactive counts recorded in twenty minutes [4]: 727 counts

SSIVYKKEG
COUNTS of radiolabeled gp120 retained [8]: 515 counts

SSFNDSSQEEHQAFLQFS [STRL33 segment 13-30]
radioactive counts recorded in twenty minutes [6]: 2689.5 counts | radioactive counts recorded in twenty minutes [7]: 2757.5 counts | Binding Results For Window Length (counts bound-background), 9 (background subtracted): 243 counts | Binding Results For Window Length (counts bound-background), 12 (background subtracted): 277 counts | Binding Results For Window Length (counts bound-background), 15 (background subtracted): 902 counts | Binding Results For Window Length (counts bound-background), 18 (background subtracted): 6038 counts

AVFALKARTVTFGVVTSV
Counts per 20′ Average-background (background subtracted): 63 counts per 20′

DLWVVVFQFQHIMVGLIL [CXCR4 segment 193-210]
radioactive counts recorded in twenty minutes [3]: 422 counts | radioactive counts recorded in twenty minutes [4]: 834 counts

LRSMTDKYRLHLSVADLL [CXCR4 segment 69-86]
radioactive counts recorded in twenty minutes [3]: 160 counts | radioactive counts recorded in twenty minutes [4]: 572 counts

QLLVFGLTANSDTHL
COUNTS of radiolabeled gp120 retained [5]: 865 counts

VMRATQLQKNLTCEVWGPTSP [human CD4 316-336]
number of radioactive decays (counts) counted: 2144 counts

KKEGEQVEF
COUNTS of radiolabeled gp120 retained [8]: 546 counts

EEVQLLVFG
COUNTS of radiolabeled gp120 retained [2]: 3170 counts

GEQAEFSFPLAFTVE
COUNTS of radiolabeled gp120 retained [11]: 14764 counts and 13000 counts

VEFSFPLAFTVE
COUNTS of radiolabeled gp120 retained [8]: 518 counts

AQNALTSVSRGSSLKILS [CXCR4 segment 313-330]
radioactive counts recorded in twenty minutes [3]: 147 counts | radioactive counts recorded in twenty minutes [4]: 559 counts

DTYICEVEDQKEEVQLLV
COUNTS of radiolabeled gp120 retained [5]: 1648 counts

AISDLFFLLTVPFWAHYA [CCR5 segment 73-90]
Counts per 20′ Average-background (background subtracted): 41 counts per 20′

LGMTHCCINPIIYAFVGE [CCR5 segment 285-]
Counts per 20′ Average-background (background subtracted): 282 counts per 20′

VEKLTGSGELWW
COUNTS of radiolabeled gp120 retained [8]: 477 counts

QKASSIVYKKEGEQVEFSFPL
COUNTS of radiolabeled gp120 retained [9]: 24959 counts
